Reference: patent publication US20080234262A1 (Wyeth, priority 2007, published 2008)

Legend:
prostate line LNCap = assay: In vitro cell culture growth assay (MTS), LNCap; format: cell-based, human; conditions: Homo sapiens, LNCaP, 72 h, LNCap cells, three days after drug treatment;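 note: viable cell density read by absorbance at 490 nm, growth expressed as percent of vehicle-treated cells on the same plate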
PI3K = PI3K (Homo sapiens, UniProt P42336); assay: Fluorescence polarization assay for PI3K; format: biochemical; conditions: PI3Kα; read-out: PI3Kα IC50;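 note: PI3K kinase reaction on PIP2 with ATP, 30-60 min, product sensed by GST-GRP with red probe in fluorescence polarization (mP), controls without enzyme and at zero time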
Sequence of PI3K (P42336 whole entry): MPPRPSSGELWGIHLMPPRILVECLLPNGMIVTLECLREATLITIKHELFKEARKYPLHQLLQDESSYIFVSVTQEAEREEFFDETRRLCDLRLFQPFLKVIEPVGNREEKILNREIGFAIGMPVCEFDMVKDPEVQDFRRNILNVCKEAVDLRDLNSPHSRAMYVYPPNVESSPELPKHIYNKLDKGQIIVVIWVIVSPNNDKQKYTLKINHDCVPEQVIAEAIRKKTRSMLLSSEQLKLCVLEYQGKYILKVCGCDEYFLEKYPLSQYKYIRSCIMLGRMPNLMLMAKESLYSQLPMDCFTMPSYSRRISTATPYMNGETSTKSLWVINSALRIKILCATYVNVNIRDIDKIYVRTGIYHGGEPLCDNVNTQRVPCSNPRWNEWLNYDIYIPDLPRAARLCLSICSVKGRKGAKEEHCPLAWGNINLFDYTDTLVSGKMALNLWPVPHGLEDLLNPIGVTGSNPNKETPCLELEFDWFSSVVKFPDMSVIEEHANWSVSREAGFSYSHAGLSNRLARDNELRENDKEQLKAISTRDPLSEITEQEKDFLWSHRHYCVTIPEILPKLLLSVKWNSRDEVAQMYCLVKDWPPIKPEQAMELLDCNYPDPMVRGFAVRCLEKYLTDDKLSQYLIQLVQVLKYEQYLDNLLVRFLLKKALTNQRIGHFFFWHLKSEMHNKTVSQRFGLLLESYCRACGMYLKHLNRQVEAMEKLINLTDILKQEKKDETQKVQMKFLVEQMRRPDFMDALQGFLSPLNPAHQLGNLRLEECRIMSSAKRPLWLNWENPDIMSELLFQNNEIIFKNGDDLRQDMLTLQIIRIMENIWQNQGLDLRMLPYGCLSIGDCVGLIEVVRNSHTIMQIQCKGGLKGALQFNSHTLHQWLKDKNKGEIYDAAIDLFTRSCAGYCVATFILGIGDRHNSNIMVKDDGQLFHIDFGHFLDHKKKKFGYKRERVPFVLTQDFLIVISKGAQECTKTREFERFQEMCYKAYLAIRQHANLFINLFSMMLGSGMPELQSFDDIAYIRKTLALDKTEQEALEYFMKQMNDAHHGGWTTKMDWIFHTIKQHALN
Sequence of PI3K (P27986 whole entry partner): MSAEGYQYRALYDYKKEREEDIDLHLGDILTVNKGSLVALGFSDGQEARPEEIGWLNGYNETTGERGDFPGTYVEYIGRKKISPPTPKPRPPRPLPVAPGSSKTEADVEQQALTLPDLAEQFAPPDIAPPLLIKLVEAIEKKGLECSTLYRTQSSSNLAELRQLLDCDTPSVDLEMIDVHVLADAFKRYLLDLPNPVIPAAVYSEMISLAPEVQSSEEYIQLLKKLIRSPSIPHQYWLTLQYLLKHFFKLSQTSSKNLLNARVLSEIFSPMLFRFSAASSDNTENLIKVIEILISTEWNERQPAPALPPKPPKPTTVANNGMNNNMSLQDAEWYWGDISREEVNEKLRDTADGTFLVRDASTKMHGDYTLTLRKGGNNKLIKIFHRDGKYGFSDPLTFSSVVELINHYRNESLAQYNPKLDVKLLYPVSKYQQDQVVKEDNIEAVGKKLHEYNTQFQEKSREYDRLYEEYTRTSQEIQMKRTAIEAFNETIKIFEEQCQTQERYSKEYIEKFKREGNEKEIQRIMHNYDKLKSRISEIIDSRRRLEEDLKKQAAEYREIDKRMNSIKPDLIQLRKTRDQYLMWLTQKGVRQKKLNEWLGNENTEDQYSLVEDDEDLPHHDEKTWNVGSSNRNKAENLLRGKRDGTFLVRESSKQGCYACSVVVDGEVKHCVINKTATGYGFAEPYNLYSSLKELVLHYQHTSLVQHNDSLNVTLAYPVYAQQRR

breast line MDA468 = assay: In vitro cell culture growth assay (MTS), MDA468; format: cell-based, human; conditions: Homo sapiens, 72 h, MDA468 cells, three days after drug treatment
How it was run: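 Growth measured as percent of same-plate vehicle control by MTS metabolic dye conversion (A490). Breast MDA468 and prostate LNCap cells, plated a day ahead, were exposed to compounds for 3 days.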

IC50 (prostate line LNCap) [nM]	IC50 (PI3K) [nM]	SMILES	IC50 (breast line MDA468) [nM]
1800	3990	OCCN1CCC(n2ncc3c(N4CCOCC4)nc(-c4ccc5[nH]ccc5c4)nc32)CC1 [Compound 246, 2-{4-[6-(1H-indol-5-yl)-4-morpholin-4-yl-1H-pyrazolo[3,4-d]pyrimidin-1-yl]piperidin-1-yl}ethanol]	3000
10100	604	O=C(NO)Nc1ccc(-c2nc(N3CCOCC3)c3cnn(C4CCN(C(=O)c5cccnc5)CC4)c3n2)cc1 [Example 305, 1-hydroxy-3-(4-{4-morpholin-4-yl-1-[1-(pyridin-3-ylcarbonyl)piperidin-4-yl]-1H-pyrazolo[3,4-d]pyrimidin-6-yl}phenyl)urea]	7200
9	10	CC(C)(C)OC(=O)N1CCC(n2ncc3c(N4CCOCC4)nc(-c4ccc(NC(=O)Nc5ccc(CCO)cc5)cc4)nc32)CC1 [Compound 954, tert-butyl 4-{6-[4-({[4-(2-hydroxyethyl)phenyl]carbamoyl}amino)phenyl]-4-morpholin-4-yl-1H-pyrazolo[3,4-d]pyrimidin-1-yl}piperidine-1-carboxylate]	100
33	221	CCOC(=O)N1CCC(n2ncc3c(N4CCOCC4)nc(-c4ccc(NC(=O)NC)cc4)nc32)CC1 [Compound 750, ethyl 4-(6-{4-[(methylcarbamoyl)amino]phenyl}-4-morpholin-4-yl-1H-pyrazolo[3,4-d]pyrimidin-1-yl)piperidine-1-carboxylate]	80
27	31	CNC(=O)Nc1ccc(-c2nc(N3CCOCC3)c3cnn(C4CCN(Cc5ccc(Br)nc5)CC4)c3n2)cc1 [Example 389, 1-[4-(1-{1-[(6-bromopyridin-3-yl)methyl]piperidin-4-yl}-4-morpholin-4-yl-1H-pyrazolo[3,4-d]pyrimidin-6-yl)phenyl]-3-methylurea]	100
1000	366	Fc1ccc(CN2CCC(n3ncc4c(N5CCOCC5)nc(-c5ccc6[nH]ccc6c5)nc43)CC2)cn1 [Example 172, 1-{1-[(6-fluoropyridin-3-yl)methyl]piperidin-4-yl}-6-(1H-indol-5-yl)-4-morpholin-4-yl-1H-pyrazolo[3,4-d]pyrimidine]	1700
8000	4640	O=S(=O)(c1ccccc1)N1CCC(n2ncc3c(N4CCOCC4)nc(-c4ccc5[nH]ccc5c4)nc32)CC1 [Compound 92]	2500
130	19	O=C(Nc1ccccc1)Nc1ccc(-c2nc(N3CCOCC3)c3cnn(C4CCNCC4)c3n2)cc1 [Compound 777, 1-[4-(4-morpholin-4-yl-1-piperidin-4-yl-1H-pyrazolo[3,4-d]pyrimidin-6-yl)phenyl]-3-phenylurea]	140
150	63	O=C(c1ccc(Cl)nc1)N1CCC(n2ncc3c(N4CCOCC4)nc(-c4cccc(O)c4)nc32)CC1 [Example 23]	800
30	20	CNC(=O)Nc1ccc(-c2nc(N3CCOCC3)c3cnn(C4CCN(C(=O)OCc5ccccc5)CC4)c3n2)cc1 [Compound 880, benzyl 4-(6-{4-[(methylcarbamoyl)amino]phenyl}-4-morpholin-4-yl-1H-pyrazolo[3,4-d]pyrimidin-1-yl)piperidine-1-carboxylate]	220
300	31	O=C(c1ccco1)N1CCC(n2ncc3c(N4CCOCC4)nc(-c4cccc(O)c4)nc32)CC1 [Example 22]	900
31	8	COC(=O)N1CCC(n2ncc3c(N4CCOCC4)nc(-c4ccc(NC(=O)Nc5ccc(CCNCCN(C)C)cc5)cc4)nc32)CC1 [Compound 919, methyl 4-{6-[4-({[4-(2-{[2-(dimethylamino)ethyl]amino}ethyl)phenyl]carbamoyl}amino)phenyl]-4-morpholin-4-yl-1H-pyrazolo[3,4-d]pyrimidin-1-yl}piperidine-1-carboxylate]	420
34	10	O=C(Nc1ccc(-c2nc(N3CCOCC3)c3cnn(C4CCN(Cc5cccnc5)CC4)c3n2)cc1)Nc1ccsc1 [Compound 620, 1-(4-{4-morpholin-4-yl-1-[1-(pyridin-3-ylmethyl)piperidin-4-yl]-1H-pyrazolo[3,4-d]pyrimidin-6-yl}phenyl)-3-(3-thienyl)urea]	130
800	363	N#CNC(=O)Nc1ccc(-c2nc(N3CCOCC3)c3cnn(C4CCN(Cc5cccnc5)CC4)c3n2)cc1 [Example 409, N′-cyano-N-(4-{4-morpholin-4-yl-1-[1-(pyridin-3-ylmethyl)piperidin-4-yl]-1H-pyrazolo[3,4-d]pyrimidin-6-yl}phenyl)carbamimidic acid]	2500
< 27	10	O=C(Nc1ccc(-c2nc(N3CCOCC3)c3cnn(CC(F)(F)F)c3n2)cc1)Nc1cccnc1 [Compound 792, 1-{4-[4-morpholin-4-yl-1-(2,2,2-trifluoroethyl)-1H-pyrazolo[3,4-d]pyrimidin-6-yl]phenyl}-3-pyridin-3-ylurea]	< 27
27	600	CCCOC(=O)N1CCC(n2ncc3c(N4CCOCC4)nc(-c4ccc(NC(=O)NCCF)cc4)nc32)CC1 [Compound 854, propyl 4-[6-(4-{[(2-fluoroethyl)carbamoyl]amino}phenyl)-4-morpholin-4-yl-1H-pyrazolo[3,4-d]pyrimidin-1-yl]piperidine-1-carboxylate]	330
103	155	CNC(=O)Nc1ccc(-c2nc(N3CCOCC3)c3cnn(C4CCN(CC5OCCO5)CC4)c3n2)cc1 [Compound 797, 1-(4-{1-[1-(1,3-dioxolan-2-ylmethyl)piperidin-4-yl]-4-morpholin-4-yl-1H-pyrazolo[3,4-d]pyrimidin-6-yl}phenyl)-3-methylurea]	300
58	56	CC(C)OC(=O)N1CCC(n2ncc3c(N4CCOCC4)nc(-c4ccc(NC(=O)Nc5ccccc5)cc4)nc32)CC1 [Compound 836, isopropyl 4-(6-{4-[(anilinocarbonyl)amino]phenyl}-4-morpholin-4-yl-1H-pyrazolo[3,4-d]pyrimidin-1-yl)piperidine-1-carboxylate]	170
27	35	O=C(Nc1ccncc1)Nc1ccc(-c2nc(N3CCOCC3)c3cnn(C4CCN(Cc5cccnc5)CC4)c3n2)cc1F [Compound 352, 1-(2-fluoro-4-{4-morpholin-4-yl-1-[1-(pyridin-3-ylmethyl)piperidin-4-yl]-1H-pyrazolo[3,4-d]pyrimidin-6-yl}phenyl)-3-pyridin-4-ylurea]	100
102	158	CCOC(=O)CN1CCC(n2ncc3c(N4CCOCC4)nc(-c4ccc(NC(=O)NC)cc4)nc32)CC1 [Compound 795, ethyl [4-(6-{4-[(methylcarbamoyl)amino]phenyl}-4-morpholin-4-yl-1H-pyrazolo[3,4-d]pyrimidin-1-yl)piperidin-1-yl]acetate]	420
58	81	COC(=O)N1CCC(n2ncc3c(N4CCOC(C)C4)nc(-c4ccc(NC(=O)Nc5cccnc5)cc4)nc32)CC1 (stereo not drawn) [Compound 846, methyl 4-[4-(2-methylmorpholin-4-yl)-6-{4-[(pyridin-3-ylcarbamoyl)amino]phenyl}-1H-pyrazolo[3,4-d]pyrimidin-1-yl]piperidine-1-carboxylate]	500
1900	276	CC1CN(c2nc(-c3cccc(O)c3)nc3c2cnn3-c2ccccc2)CCO1 (stereo not drawn) [Compound 943, 3-[4-(2-methylmorpholin-4-yl)-1-phenyl-1H-pyrazolo[3,4-d]pyrimidin-6-yl]phenol]	7500
2500	686	Fc1ccc(CN2CCC(n3ncc4c(N5CCOCC5)nc(-c5ccc6[nH]ccc6c5)nc43)CC2)cc1 [Example 55]	3000
28	74	CC(C)OC(=O)N1CCC(n2ncc3c(N4CCOCC4)nc(-c4ccc(NC(=O)Nc5cccnc5)cc4)nc32)CC1 [Compound 838, isopropyl 4-(4-morpholin-4-yl-6-{4-[(pyridin-3-ylcarbamoyl)amino]phenyl}-1H-pyrazolo[3,4-d]pyrimidin-1-yl)piperidine-1-carboxylate]	150
750	1280	O=C(c1ccc(Cl)nc1)N1CCC(n2ncc3c(N4CCOCC4)nc(-c4ccc5[nH]ccc5c4)nc32)CC1 [Example 196, 1-{1-[(6-chloropyridin-3-yl)carbonyl]piperidin-4-yl}-6-(1H-indol-5-yl)-4-morpholin-4-yl-1H-pyrazolo[3,4-d]pyrimidine]	3000
950	1060	C=CC(=O)N1CCC(n2ncc3c(N4CCOCC4)nc(-c4ccc5[nH]ccc5c4)nc32)CC1 [Compound 194]	3000
1000	2140	O=C(NCCc1ccccc1)Nc1ccc(-c2nc(N3CCOCC3)c3cnn(C4CCN(Cc5ccccc5)CC4)c3n2)cc1 [Compound 259, 1-{4-[1-(1-benzylpiperidin-4-yl)-4-morpholin-4-yl-1H-pyrazolo[3,4-d]pyrimidin-6-yl]phenyl}-3-(2-phenylethyl)urea]	20000
70	41	O=C(Nc1ccccc1)Nc1ccc(-c2nc(N3CCOCC3)c3cnn(C4CCN(Cc5cccnc5)CC4)c3n2)cc1F [Example 351, 1-(2-fluoro-4-{4-morpholin-4-yl-1-[1-(pyridin-3-ylmethyl)piperidin-4-yl]-1H-pyrazolo[3,4-d]pyrimidin-6-yl}phenyl)-3-phenylurea]	400
